This data set has as its system HCT116 p53+/+ or p53−/− tumor. Nature of the data set: Subcutaneous HCT116 shMyD88 tumors in nude mice, doxycyclin-induced MyD88 extinction. Format: in vivo. As to conditions: HCT116 cells stably expressing doxycyclin-inducible MyD88 shRNA, treated with doxycyclin. How it is done:
Then we generated HCT116 p53+/+ or p53−/− stably expressing a doxycyclin-inducible MyD88 shRNA. These cell lines were subcutaneously implanted in nude mice, then the mice were treated or not with doxycyclin to induce MyD88 extinction in the tumor.

In the case of “MyD88 shRNA: doxycyclin-inducible MyD88 shRNA stably expressed in HCT116 cells (sense CGGACCCTAAATCCAATAGAAA; antisense TTTCTATTGGATTTAGGGTCCT)”, the “Tumor growth in vivo” value was “blocks tumor growth in vivo”.

The values are drawn from patent publication US9683986B2, “Treatment of cancer by inhibition of the MYD88/ERK MAP kinase interaction” (CENTRE LEON BERARD, priority 2011, dated 2017).
